Results on five compounds are retold here after PMC9289885, “Antimicrobial Peptides against Multidrug-Resistant Pseudomonas aeruginosa Biofilm from Cystic Fibrosis Patients” (Journal of Medicinal Chemistry, 2022).

Read-outs that look alike come from different tables or passages of the source. Some results are limits rather than exact numbers.

For data set [1], the system named is P. aeruginosa CF patient isolates and PAO1. Type of data set: cell-based, Pseudomonas aeruginosa. The settings on record: PAO1, 24 h. Here is the method: The MIC of the peptides was tested as previously described with minor adjustments.[50],[51] Briefly, peptide activity was examined in sterile 96-well polystyrene plates (Bar-Naor BN36010096D). Overnight cultures of P. aeruginosa were washed and resuspended in a BM2 medium. Aliquots of 50 μL of suspended bacteria (1 × 10^6 CFU/mL) were added to 50 μL of BM2 medium containing peptides in serial 2-fold dilutions (final concentration between 0.78 and 50 μM). Plates were incubated for 24 h at 37 °C while being agitated. Inhibition of growth was assessed by absorbance measurements at OD600 using a microplate auto reader. The MIC was defined as the concentration at which 90% inhibition of growth was observed after incubation for 24 h.

The next data set has as its system CF sputum proteases. Kind of data set: in vitro. The settings on record: human, supernatant of pooled CF patient sputum, diluted 10-fold. As to the method: (§1) The peptide stability in CF patient sputum was tested as previously described.[52] Briefly, individual sputum samples from CF patients were pooled and diluted 10-fold with Dulbecco’s phosphate-buffered saline without calcium and magnesium. The suspensions were thoroughly mixed and then centrifuged at 1000 rpm for 10 min. D,L-K6L9 peptides and LL-37 were added to the supernatant to a final concentration of 100 μM, and the mixture was incubated at 37 °C for several time intervals. The reaction was stopped by adding 10 μL of 10% hydrogen chloride (HCl) to the 55 μL mixture. Residual peptide concentrations were determined via RP-HPLC on a Vydac C18 column (Grace Discovery Sciences, Deerfield, IL) using a linear gradient from 20% to 60% ACN in water (both containing 0.1% TFA) for 50 min. Data are presented as a percentage of peptide compared to the mixture without incubation ± standard errors.

A further data set can be described thus: in vitro. The settings on record: pooled CF patient sputum diluted 10-fold with PBS, supernatant, 100 μM peptide, 37 °C. As to the method: as §1
The next data set relates to mammalian cells. The settings on record: cited from earlier work. An excerpt:
We investigated the antibiofilm and antimicrobial activities of a series of peptides containing nine leucines and six lysines each, with a net charge of +7 (Table 1).

In data set [2] the test system is P. aeruginosa clinical CF isolates biofilm. It is filed as cell-based, Pseudomonas aeruginosa. Particulars: 24 h. Here is the method: The biofilm formation assay was performed as described for the MIC assay with some alterations and used either BM2 or CF patient sputum diluted 10-fold with BM2. Plates containing peptides at serial dilutions and bacteria were incubated for 24 h at 37 °C without agitation to allow biofilm formation. Unattached bacteria were then washed from plates, and the plates stained with 0.1% CV, followed by absorbance measurements at OD590 using a microplate auto reader. Data are presented as a percentage of the biofilm biomass compared to biofilm formed by untreated bacteria ± the standard error.

Data set [3] relates to P. aeruginosa CF isolates and PAO1. It is filed as cell-based, Pseudomonas aeruginosa. Particulars: 10 μM peptide, 1 h, 37 °C. Here is the method: The suspensions were thoroughly mixed, centrifuged at 1000 rpm for 10 min, and filtered with a 0.22 μm filter. Supernatants were stored and used for killing assays and fluorescence microscopy, respectively. Then, 10^6 CFU/mL of P. aeruginosa was added to a 10% diluted sputum supernatant, followed by 10 μM peptides. The mixture was incubated at 37 °C for 1 h and then diluted and plated on freshly made LB agar plates.

In general, MIC refers to the lowest concentration found to suppress growth. Lower therefore signals a more susceptible organism. With `CC(C)C[C@H](NC(=O)[C@H](CC(C)C)NC(=O)[C@@H](CC(C)C)NC(=O)[C@H](CC(C)C)NC(=O)[C@H](CCCCN)NC(=O)[C@H](CCCCN)NC(=O)[C@@H](CCCCN)NC(=O)[C@@H](CCCCN)NC(=O)[C@H](CCCCN)NC(=O)[C@@H](CCCCN)NC(=O)[C@H](CC(C)C)NC(=O)[C@H](CC(C)C)NC(=O)[C@@H](CC(C)C)NC(=O)[C@H](CC(C)C)NC(=O)[C@@H](N)CC(C)C)C(N)=O` (stereo in doubt) [Seg6D], the MIC in data set [1] was ≤ 12.5 µM. Besides, in the data set on CF sputum proteases, the metabolised at 24 h, 100 μM is ~30% and the metabolised at 48 h, 100 μM is ~30%. Besides, in the data set “in vitro” (6 h, RP-HPLC), the “degradation in CF sputum” value was “protected entirely from degradation”.
On to `CC(C)C[C@H](NC(=O)[C@H](CC(C)C)NC(=O)[C@H](CCCCN)NC(=O)[C@H](CC(C)C)NC(=O)[C@H](CC(C)C)NC(=O)[C@H](CCCCN)NC(=O)[C@H](CCCCN)NC(=O)[C@H](CC(C)C)NC(=O)[C@H](CC(C)C)NC(=O)[C@H](CCCCN)NC(=O)[C@H](CCCCN)NC(=O)[C@H](CC(C)C)NC(=O)[C@H](CC(C)C)NC(=O)[C@H](CCCCN)NC(=O)[C@@H](N)CC(C)C)C(N)=O` [Amp1L], for which, in the data set with mammalian cells, the “toxicity to mammalian cells” value is “toxic to mammalian cells”. Moreover, in the data set with CF sputum proteases, the metabolised at 3 h, 100 μM is ~70% and the metabolised at 6 h, 100 μM is ~80%.
With `CC(C)C[C@H](NC(=O)[C@H](CC(C)C)NC(=O)[C@@H](CCCCN)NC(=O)[C@H](CC(C)C)NC(=O)[C@H](CC(C)C)NC(=O)[C@H](CCCCN)NC(=O)[C@@H](CCCCN)NC(=O)[C@@H](CC(C)C)NC(=O)[C@H](CC(C)C)NC(=O)[C@@H](CCCCN)NC(=O)[C@H](CCCCN)NC(=O)[C@H](CC(C)C)NC(=O)[C@@H](CC(C)C)NC(=O)[C@H](CCCCN)NC(=O)[C@@H](N)CC(C)C)C(N)=O` (stereo in doubt) [Amp1D], the “inhibition of biofilm formation” value in data set [2] is ~50%. For the same compound, the minimal inhibitory concentration (MIC) in data set [1] was ≤ 3.12 µM. Moreover, the metabolised at 48 h, 100 μM with CF sputum proteases was ~30%. Also, in the data set “in vitro” (6 h, RP-HPLC), the “degradation in CF sputum” value is “protected entirely from degradation”.
As to `CC(C)C[C@H](NC(=O)[C@H](CC(C)C)NC(=O)[C@@H](CC(C)C)NC(=O)[C@@H](CC(C)C)NC(=O)[C@H](CC(C)C)NC(=O)[C@@H](CC(C)C)NC(=O)[C@H](CC(C)C)NC(=O)[C@H](CC(C)C)NC(=O)[C@@H](CCCCN)NC(=O)[C@H](CCCCN)NC(=O)[C@@H](N)CCCCN)C(=O)N[C@@H](CC(C)C)C(=O)N[C@H](CCCCN)C(=O)N[C@@H](CCCCN)C(=O)N[C@@H](CCCCN)C(N)=O` (stereo in doubt) [Seg5D], the metabolised at 48 h, 100 μM in the data set with CF sputum proteases is ~30%. Also, in the data set “in vitro” (6 h, RP-HPLC), the “degradation in CF sputum” value is given as “protected entirely from degradation”.
As to `CC[C@H](C)[C@H](NC(=O)[C@H](CCCCN)NC(=O)[C@H](CCC(=O)O)NC(=O)[C@H](CCCCN)NC(=O)[C@H](CO)NC(=O)[C@H](CCCCN)NC(=O)[C@H](CCCNC(=N)N)NC(=O)[C@H](Cc1ccccc1)NC(=O)[C@H](Cc1ccccc1)NC(=O)[C@H](CC(=O)O)NC(=O)CNC(=O)[C@H](CC(C)C)NC(=O)[C@@H](N)CC(C)C)C(=O)NCC(=O)N[C@@H](CCCCN)C(=O)N[C@@H](CCC(=O)O)C(=O)N[C@@H](Cc1ccccc1)C(=O)N[C@@H](CCCCN)C(=O)N[C@@H](CCCNC(=N)N)C(=O)N[C@H](C(=O)N[C@H](C(=O)N[C@@H](CCC(N)=O)C(=O)N[C@@H](CCCNC(=N)N)C(=O)N[C@H](C(=O)N[C@@H](CCCCN)C(=O)N[C@@H](CC(=O)O)C(=O)N[C@@H](Cc1ccccc1)C(=O)N[C@@H](CC(C)C)C(=O)N[C@@H](CCCNC(=N)N)C(=O)N[C@@H](CC(N)=O)C(=O)N[C@@H](CC(C)C)C(=O)N[C@H](C(=O)N1CCC[C@H]1C(=O)N[C@@H](CCCNC(=N)N)C(=O)N[C@H](C(=O)N[C@@H](CCC(=O)O)C(=O)N[C@@H](CO)C(N)=O)[C@@H](C)O)C(C)C)[C@@H](C)CC)C(C)C)[C@@H](C)CC` [LL-37, reference compound], the “degradation in CF sputum” value in “in vitro” (30 min, residual peptide by RP-HPLC vs no incubation) is “fully degraded”. For the same compound, the killing rate in data set [3] (PAO1, 10% mixed CF sputum, 10^6 CFU/mL, colony count vs untreated) is 11.48%; in data set [3] (control isolate 895 in 895 CF diluted sputum), 97.57%; in data set [3] (isolate 24, 10% mixed CF sputum, 10^6 CFU/mL, colony count vs untreated) it was 13.23%; in data set [3] (isolate 46, 10% mixed CF sputum, 10^6 CFU/mL, colony count vs untreated) it was 11.73%; in data set [3] (isolate 82, 10% mixed CF sputum, 10^6 CFU/mL, colony count vs untreated), 34.24%.
